From paper PMC7274539, “The selective glucocorticoid receptor antagonist CORT125281 has tissue-specific activity” (The Journal of Endocrinology, 2020)

Experiments:
[1] = test system: GR transcriptional activity; experiment: Acute corticosterone exposure or basal conditions: RT-qPCR of GR target genes in tissues; format: in vivo, C57Bl/6J mice; settings: corticosterone 1.5 mg/kg s.c., 1 h; liver, muscle, BAT, WAT, hippocampus; except Sgk1 in muscle, hippocampus and Mt2a in hippocampus
Description: (§1) All studies involving animals were approved by the institutional ethics committee on animal care and experimentation at the Leiden University Medical Center. The 8-week old male C57Bl/6J mice (Charles River) were housed in ventilated cages with a 12 h light:12 h darkness regime and ad libitum access to food and water. In the acute corticosterone exposure experiments, mice received a synthetic chow diet (Research Diets, New Brunswick, NJ, USA) containing vehicle or CORT125281 (6, 20 or 60 mg/kg/day, Corcept Therapeutics, Menlo Park, CA, USA) for 6 days. […] Mice were treated daily with vehicle, 60 mg/kg mifepristone (Corcept Therapeutics) or 60 mg/kg CORT125281 (dissolved in PBS with 0.1% Tween 80 and 0.5% hydroxypropylmethylcellullose, Corcept Therapeutics) via oral gavage for 5 days, after which mice were killed by CO2 inhalation. Throughout the experiment, body weight was monitored and body composition was determined with EchoMRI™ (Frankfurt, Germany). After 5 days, blood was collected from the lateral tail vain in paraoxon-coated capillaries after a 6-h fast. Plasma triglyceride, total cholesterol, free fatty acid, glucose and insulin levels were determined using commercially available kits (Roche; Instruchemie, Delfzijl, Netherlands and Crystal Chem, Zaandam, Netherlands). Blood concentrations of the major leukocyte classes, that is, lymphocytes, monocytes and eosinophils, were determined in whole blood using an automatic veterinary hematology analysis (Sysmex XT-2000iV; Goffin Meyvis, Etten-Leur, the Netherlands).
(§2) In both acute and subchronic corticosterone experiments, relevant tissues (including quadriceps muscle, interscapular BAT, gonadal white adipose tissue (WAT), adrenals, spleen, thymus, pituitary and hippocampus) were collected to determine tissue weight and/or for further molecular analysis.
(§3) Total RNA was isolated from snap-frozen tissues using TriPure isolation reagent (Roche). After reverse transcription to cDNA (Promega), RT-qPCR was performed using IQ SYBR-Green supermix and MyIQ thermal cycler (Bio-RAD CFX96). Primers were tested for high efficiency (90–110%) and for amplification of a single PCR product. All primer sequences are listed in Supplementary Table 1 (see section on supplementary materials given at the end of this article), with the exception of Ncor1 and Ncor2 which were purchased from Qiagen. Fold change expression was calculated using the 2^−ΔΔ^CT method.

male C57Bl/6J mice = experiment: Subchronic corticosterone exposure (pellet): body composition, organ weights, leukocytes, plasma insulin, glucose, lipids; format: in vivo
Description: as §1, §2

[2] = molecular target: T1, human GR ligand-binding domain (Homo sapiens, UniProt P04150); experiment: MARCoNI peptide interaction profiling (coregulator-nuclear receptor interaction); format: biochemical; settings: for interactions at a number of motifs (dexamethasone-exclusive cluster): 1 µM; for ligand-induced interaction at the majority of coregulator motifs: cortisol 1 µM, dexamethasone 1 µM
T1 construct: purchased Invitrogen PV4689
T1 sequence (P04150 524-758 limits assumed): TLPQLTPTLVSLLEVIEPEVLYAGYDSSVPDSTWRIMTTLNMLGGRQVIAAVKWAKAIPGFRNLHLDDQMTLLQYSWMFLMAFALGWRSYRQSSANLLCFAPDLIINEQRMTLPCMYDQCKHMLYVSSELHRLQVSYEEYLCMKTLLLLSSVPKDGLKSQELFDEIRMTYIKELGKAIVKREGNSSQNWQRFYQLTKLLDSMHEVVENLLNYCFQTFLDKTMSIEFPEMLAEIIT
Description: As the assay utilizes human GR, experiments were performed with cortisol rather than corticosterone. […] Incubation was performed at 20°C in a PamStation96 (PamGene International, Den Bosch, Netherlands) for 40 min. Receptor binding to each peptide on the array, reflected by a fluorescent signal, was quantified by analysis of .tiff images using BioNavigator software (PamGene International).

[3] = test system: GR transcriptional activity; experiment: Subchronic corticosterone exposure: RT-qPCR of GR and insulin target genes in tissues; format: in vivo, C57Bl/6J mice
Description: as §1, §2, §3

GR [4] = test system: GR; design: method as in Lahteenmaki et al. 1987, Kroon et al. 2018; settings: half maximal inhibitory concentration of the GR antagonist; ref Lahteenmaki et al. 1987, Kroon et al. 2018; cited from earlier work
progesterone receptor = test system: progesterone receptor; design: method as in earlier work; settings: ref Jung-Testas & Baulieu 1983, Gaillard et al. 1984, Kloosterboer et al. 1995, Kroon et al. 2018; cited from earlier work
GR [5] = settings: mifepristone; ref Havel et al. 1996, van den Heuvel et al. 2016, Kroon et al. 2018; cited from earlier work
HPA-axis activity = test system: HPA-axis activity; design: method as in Kroon et al. 2018; settings: chronic administration via the food; ref Kroon et al. 2018; cited from earlier work
androgen receptor = settings: ref Jung-Testas & Baulieu 1983, Gaillard et al. 1984, Kloosterboer et al. 1995, Kroon et al. 2018; cited from earlier work
[6] = corticosterone pellet 12.5 mg, 5 days, no antagonist
[7] = mifepristone 0.1 µM, CORT125281 1 µM
[8] = corticosterone pellet 5 days, 60 mg/kg/day oral gavage

C[C@]12C[C@H](O)[C@H]3[C@@H](CCC4=CC(=O)CC[C@@]43C)[C@@H]1CC[C@@H]2C(=O)CO [corticosterone]
expression of GR target genes Fkbp5, Gilz, Sgk1, Mt2a after corticosterone injection [1]: upregulated expression of all GR target genes | fat mass under subchronic corticosterone exposure (male C57Bl/6J mice; [6]): increase | lean mass under subchronic corticosterone exposure (male C57Bl/6J mice; [6]): reduced | plasma insulin under subchronic corticosterone exposure (male C57Bl/6J mice; [6]): induced hyperinsulinemia | spleen weight under subchronic corticosterone exposure (male C57Bl/6J mice; [6]): decreased | Eosinophil count (male C57Bl/6J mice; corticosterone pellet 5 days, no antagonist): Not detected

C[C@]12CCC(=O)C=C1CC[C@@H]1[C@@H]2[C@@H](O)C[C@@]2(C)[C@H]1CC[C@]2(O)C(=O)CO [cortisol]
interactions at a number of motifs (dexamethasone-exclusive cluster) [2]: without effect | ligand-induced interaction at the majority of coregulator motifs [2, 7]: induced motif binding

C[C@@H]1C[C@H]2[C@@H]3CCC4=CC(=O)C=C[C@]4(C)[C@@]3(F)[C@@H](O)C[C@]2(C)[C@@]1(O)C(=O)CO [dexamethasone]
interactions at a number of motifs (dexamethasone-exclusive cluster) [2]: induced substantial interactions | ligand-induced interaction at the majority of coregulator motifs [2, 7]: induced motif binding

CC#C[C@]1(O)CC[C@H]2[C@@H]3CCC4=CC(=O)CCC4=C3[C@@H](c3ccc(N(C)C)cc3)C[C@@]21C [mifepristone]
binding of corepressor motifs of NCOR1 and NCOR2 (SMRT) by ligand-GR complex [2, 7]: strongly bound | HOMA-IR (male C57Bl/6J mice; [8]): improved | corticosterone-induced decrease of spleen weight (male C57Bl/6J mice; [8]): prevented | corticosterone-induced fat mass (male C57Bl/6J mice; [8]): non-significantly reduced | corticosterone-induced hyperlipidaemia (plasma triglycerides, total cholesterol) (male C57Bl/6J mice; [8]): seemed to modestly reduce | corticosterone-induced immune suppression (total white blood cells, lymphocytes, monocytes, eosinophils) (male C57Bl/6J mice; [8]): fully prevented | free fatty acid levels (male C57Bl/6J mice; [8]): did not affect | glucose levels (male C57Bl/6J mice; [8]): improved | lean mass (reduced by corticosterone) (male C57Bl/6J mice; [8]): not altered | corticosterone-induced hyperinsulinemia (male C57Bl/6J mice; corticosterone pellet 5 days, 60 mg/kg/day oral gavage, 6-h fast): fully prevented | basal mRNA expression of some GR target genes (Gilz in liver, muscle and BAT; Mt2a in BAT) ([3]; 60 mg/kg/day oral gavage 5 days, sham pellet): reduced | corticosterone-induced expression of GR target genes (Fkbp5, Gilz, Sgk1, Mt2a) ([3]; corticosterone pellet 5 days, 60 mg/kg/day oral gavage, liver, muscle, BAT, WAT, hippocampus): effectively prevented | IC50 (GR [4]): 43 nM | activity at the progesterone receptor (progesterone receptor): antagonizes | partial agonism at GR (GR [5]): partial agonistic properties | endogenous corticosterone levels (HPA-axis activity): suppressed | activity at the androgen receptor (androgen receptor): antagonizes
